Reference: ChEMBL document CHEMBL1157199, “Effects of modifications of the linker in a series of phenylpropanoic acid derivatives: Synthesis, evaluation as PPARalpha/gamma dual agonists, and X-ray crystallographic studies” (Bioorg Med Chem, 2008)
Each block holds one compound with its values, some of them ahead of it. Activity calls are given as the source filed them. The calls are words filed in the database; no cut-off is given here.

What was measured:
[1] = target: T1, Peroxisome proliferator-activated receptor alpha (Homo sapiens, UniProt Q07869)
T1 sequence (Q07869 whole entry): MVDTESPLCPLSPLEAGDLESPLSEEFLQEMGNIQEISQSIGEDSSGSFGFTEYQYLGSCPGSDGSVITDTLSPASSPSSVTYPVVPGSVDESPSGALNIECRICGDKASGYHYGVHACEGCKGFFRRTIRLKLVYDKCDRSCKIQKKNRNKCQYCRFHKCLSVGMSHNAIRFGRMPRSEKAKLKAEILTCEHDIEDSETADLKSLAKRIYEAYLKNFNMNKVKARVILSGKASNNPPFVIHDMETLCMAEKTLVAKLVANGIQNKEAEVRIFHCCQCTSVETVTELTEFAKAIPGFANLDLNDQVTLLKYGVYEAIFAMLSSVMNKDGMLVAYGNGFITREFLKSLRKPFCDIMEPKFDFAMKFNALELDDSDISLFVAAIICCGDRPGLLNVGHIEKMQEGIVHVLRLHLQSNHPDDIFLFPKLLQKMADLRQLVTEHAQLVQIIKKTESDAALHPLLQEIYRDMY

Mus musculus [2] = test: Antihyperglycemic effect in ob/ob B6.V-Lepob/J mouse assessed as reduction in blood glucose level at 20 mg/kg once daily after 14 days relative to control; type: functional; design: scale not given: the % may be the effect or the level left
Mus musculus [3] = species: Mus musculus; test: Antihyperglycemic effect in ob/ob B6.V-Lepob/J mouse assessed as reduction in plasma glucose level after 14 days relative to control; type: functional, organism-based
[4] = AUC in Sprague-Dawley rat plasma at 5 mg/kg, po after 24 hrs; type: ADME, organism-based; design: time < 24 hr, dose 5 mg/kg, route oral
[5] = Half life in Sprague-Dawley rat plasma at 5 mg/kg, iv after 24 hrs; type: ADME, organism-based; design: dose 5 mg/kg, route intravenous
[6] = Bioavailability in Sprague-Dawley rat plasma at 5 mg/kg, po after 24 hrs; type: ADME, organism-based
[7] = Volume of distribution at steady state in Sprague-Dawley rat plasma after 24 hrs; type: ADME, organism-based; settings: read-out: Vdss
[8] = Clearance in Sprague-Dawley rat plasma after 24 hrs; type: ADME, organism-based
Rattus norvegicus [9] = test: Reduction of plasma glucose level in Zucker diabetic fa/fa rat at 10 mg/kg, po; type: functional; design: scale not given: the % may be the effect or the level left
Rattus norvegicus [10] = test: Decrease in fasting serum triglyceride level in Zucker diabetic fa/fa rat at 10 mg/kg, po; type: functional; design: scale not given: the % may be the effect or the level left
Rattus norvegicus [11] = test: Increase in high density lipoprotein level in Zucker diabetic fa/fa rat at 10 mg/kg, po; type: functional
[12] = Half life in Sprague-Dawley rat plasma at 1 mg/kg, iv after 24 hrs; type: ADME, organism-based; design: dose 1 mg/kg, route intravenous

SMILES: Cc1oc(-c2ccccc2)nc1CNCc1ccc(C[C@@H](C(=O)O)n2cccc2)cc1
EC50 [1]: > 30 µM

SMILES: Cc1oc(-c2ccccc2)nc1CCCc1ccc(C[C@@H](C(=O)O)n2cccc2)cc1
Activity (Mus musculus [2]): 70%
Activity (Mus musculus [3]): Active
AUC at 24 h [4]: 8650 ng·h/mL
half-life [5]: 8.4 h
bioavailability [6]: 50%
Vd [7]: 1.06 L/kg
clearance [8]: 5.3 mL/min/kg

SMILES: Cc1oc(-c2ccccc2)nc1CCOc1ccc(C[C@@H](C(=O)O)n2cccc2)cc1
Activity (Rattus norvegicus [9]): 40%
Activity (Rattus norvegicus [10]): 24%
Activity (Rattus norvegicus [11]): 31%

SMILES: CN(CC#Cc1ccc(CC(C(=O)O)n2cccc2)cc1)c1ccccn1 (racemic)
EC50 [1]: > 100 µM

SMILES: CN(C/C=C/c1ccc(C[C@@H](C(=O)O)n2cccc2)cc1)c1ccccc1
EC50 [1]: > 30 µM

SMILES: Cc1oc(-c2ccccc2)nc1C/C=C/c1ccc(C[C@@H](C(=O)O)n2cccc2)cc1
half-life [12]: 5.6 h
Activity (Mus musculus [2]): 71%
Activity (Mus musculus [3]): Active
AUC at 24 h [4]: 55400 ng·h/mL
bioavailability [6]: 62%
Vd [7]: 0.408 L/kg
clearance [8]: 0.9 mL/min/kg

SMILES: CC(=O)N(Cc1ccc(C[C@@H](C(=O)O)n2cccc2)cc1)Cc1nc(-c2ccccc2)oc1C
EC50 [1]: > 30 µM

SMILES: Cc1oc(-c2ccccc2)nc1CCNc1ccc(C[C@@H](C(=O)O)n2cccc2)cc1
Activity (Mus musculus [2]): inactive

SMILES: CN(CC#Cc1ccc(C[C@@H](C(=O)O)n2cccc2)cc1)c1ccccc1
EC50 [1]: > 100 µM

The remaining lines, values ahead:

EC50 [1]: 16 µM
SMILES: Cc1oc(-c2ccccc2)nc1CC#Cc1ccc(CC(C(=O)O)c2cccnc2)cc1 (racemic)

EC50 [1]: 12 µM
SMILES: Cc1oc(-c2ccccc2)nc1CN(C)Cc1ccc(C[C@@H](C(=O)O)n2cccc2)cc1

EC50 [1]: 4 µM
SMILES: Cc1oc(-c2ccccc2)nc1CC#Cc1ccc(CC(C(=O)O)c2ccc(-c3ccccc3)cc2)cc1 (racemic)

EC50 [1]: 29 µM
SMILES: CN(C/C=C/c1ccc(C[C@@H](C(=O)O)n2cccc2)cc1)c1ccccn1

EC50 [1]: 2.8 µM
SMILES: Cc1oc(-c2ccccc2)nc1CC#Cc1ccc(CC(C(=O)O)c2cccc(-c3ccccc3)c2)cc1 (racemic)
